Columns and labels:
Assay in all cases: radiometric filter-binding kinase assay
PRKCA (human) = PRKCA (human) (UniProt P17252); conditions: compound 1.0 µM; ATP 20 µM
GSK3B (human) = GSK3B (human) (UniProt P49841); conditions: compound 1.0 µM; ATP 5 µM
IKBKB (human) = IKBKB (human) (UniProt O14920); conditions: compound 1.0 µM; ATP 5 µM
MAPKAPK2 (human) = MAPKAPK2 (human) (UniProt P49137); conditions: compound 1.0 µM; ATP 20 µM
DYRK2 (human) = DYRK2 (human) (UniProt Q92630); conditions: compound 1.0 µM; ATP 50 µM
HIPK3 (human) = HIPK3 (human) (UniProt Q9H422); conditions: compound 1.0 µM; ATP 20 µM
[1] = target: PRKACA or PRKACB or PRKACG (human) (UniProt P22694+P22612+P17612); conditions: compound 1.0 µM; ATP 20 µM
NEK2 (human) = NEK2 (human) (UniProt P51955); conditions: compound 1.0 µM; ATP 50 µM
CAMKK2 (human) = CAMKK2 (human) (UniProt Q96RR4); conditions: compound 1.0 µM; ATP 20 µM
BRSK2 (human) = BRSK2 (human) (UniProt Q8IWQ3); conditions: compound 1.0 µM; ATP 50 µM
SRC (chicken) = conditions: compound 1.0 µM; ATP 50 µM; accession and sequence are those of the human protein
MAPK14 (human) = MAPK14 (human) (UniProt Q16539); conditions: compound 1.0 µM; ATP 50 µM
CaMK1 (human) = CaMK1 (human) (UniProt Q14012); conditions: compound 1.0 µM; ATP 50 µM
HIPK2 (human) = HIPK2 (human) (UniProt Q9H2X6); conditions: compound 1.0 µM; ATP 5 µM
PDPK1 (human) = PDPK1 (human) (UniProt O15530); conditions: compound 1.0 µM
MAPK3 (human) = MAPK3 (human) (UniProt P27361); conditions: compound 1.0 µM; ATP 5 µM
CSK (human) = CSK (human) (UniProt P41240); conditions: compound 1.0 µM; ATP 20 µM
MAPK15 (human) = MAPK15 (human) (UniProt Q8TD08); conditions: compound 1.0 µM; ATP 5 µM
PAK6 (human) = PAK6 (human) (UniProt Q9NQU5); conditions: compound 1.0 µM; ATP 20 µM
MAPK8 (human) = MAPK8 (human) (UniProt P45983); conditions: compound 1.0 µM; ATP 20 µM
[2] = target: CSNK2A1 or CSNK2A2 (human) (UniProt P19784+P68400); conditions: compound 1.0 µM; ATP 5 µM
EEF2K (human) = EEF2K (human) (UniProt O00418); conditions: compound 1.0 µM; ATP 5 µM
AURKB (human) = AURKB (human) (UniProt Q96GD4); conditions: compound 1.0 µM; ATP 20 µM
PLK1 (human) = PLK1 (human) (UniProt P53350); conditions: compound 1.0 µM; ATP 5 µM
[3] = system: AKT1 (human), P31749 [S473D]; conditions: compound 1.0 µM; ATP 5 µM
MAP2K1 (human) = MAP2K1 (human) (UniProt Q02750); conditions: compound 1.0 µM; ATP 5 µM
DYRK3 (human) = DYRK3 (human) (UniProt O43781); conditions: compound 1.0 µM; ATP 5 µM
RPS6KA1 KD1 KD2 (human) = RPS6KA1 KD1 KD2 (human) (UniProt Q15418); conditions: compound 1.0 µM; ATP 50 µM
PRKAA1 or PRKAA2 (rat) = conditions: compound 1.0 µM; accession and sequence are those of the human protein
MAPK12 (human) = MAPK12 (human) (UniProt P53778); conditions: compound 1.0 µM; ATP 5 µM
STK3 (human) = STK3 (human) (UniProt Q13188); conditions: compound 1.0 µM; ATP 20 µM
AKT2 (human) = AKT2 (human) (UniProt P31751); conditions: compound 1.0 µM; ATP 50 µM
PIM1 (human) = PIM1 (human) (UniProt P11309); conditions: compound 1.0 µM; ATP 20 µM
PKN2 (human) = PKN2 (human) (UniProt Q16513); conditions: compound 1.0 µM; ATP 5 µM
MAPK10 (human) = MAPK10 (human) (UniProt P53779); conditions: compound 1.0 µM; ATP 50 µM
CHEK2 (human) = CHEK2 (human) (UniProt O96017); conditions: compound 1.0 µM; ATP 20 µM
[4] = system: SGK1 (human), O00141 [S422D]; conditions: compound 1.0 µM; ATP 20 µM
MAPK1 (human) = MAPK1 (human) (UniProt P28482); conditions: compound 1.0 µM; ATP 50 µM
PIM3 (human) = PIM3 (human) (UniProt Q86V86); conditions: compound 1.0 µM; ATP 20 µM

Chain of PDPK1 (human) (O15530 whole entry, looked up): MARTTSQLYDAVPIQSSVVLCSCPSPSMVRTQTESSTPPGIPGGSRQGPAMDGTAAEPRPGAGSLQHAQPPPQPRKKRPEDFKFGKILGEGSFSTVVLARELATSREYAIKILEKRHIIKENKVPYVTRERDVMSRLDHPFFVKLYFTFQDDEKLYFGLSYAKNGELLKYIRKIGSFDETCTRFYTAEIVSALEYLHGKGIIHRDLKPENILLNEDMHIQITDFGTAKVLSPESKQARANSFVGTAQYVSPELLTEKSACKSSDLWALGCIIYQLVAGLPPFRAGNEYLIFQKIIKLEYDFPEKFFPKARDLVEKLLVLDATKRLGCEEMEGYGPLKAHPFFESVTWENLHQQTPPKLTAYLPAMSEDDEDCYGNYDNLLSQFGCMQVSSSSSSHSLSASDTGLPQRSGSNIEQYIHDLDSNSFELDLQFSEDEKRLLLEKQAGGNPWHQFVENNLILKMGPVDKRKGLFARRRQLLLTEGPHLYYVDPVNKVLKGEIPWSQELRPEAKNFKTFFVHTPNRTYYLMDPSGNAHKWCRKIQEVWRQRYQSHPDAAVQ
Chain of MAPK10 (human) (P53779 whole entry, looked up): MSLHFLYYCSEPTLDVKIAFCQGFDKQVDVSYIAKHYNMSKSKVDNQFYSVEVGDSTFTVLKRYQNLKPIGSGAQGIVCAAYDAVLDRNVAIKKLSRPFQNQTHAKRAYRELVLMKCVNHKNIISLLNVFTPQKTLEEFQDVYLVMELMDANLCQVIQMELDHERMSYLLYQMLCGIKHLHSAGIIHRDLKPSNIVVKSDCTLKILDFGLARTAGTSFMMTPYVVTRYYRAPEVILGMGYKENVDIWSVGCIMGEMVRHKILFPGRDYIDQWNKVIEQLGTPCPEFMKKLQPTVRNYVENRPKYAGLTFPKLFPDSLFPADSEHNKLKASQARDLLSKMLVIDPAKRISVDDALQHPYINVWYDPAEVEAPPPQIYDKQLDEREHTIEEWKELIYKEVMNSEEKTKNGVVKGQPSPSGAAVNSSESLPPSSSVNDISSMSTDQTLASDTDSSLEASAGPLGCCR
Chain of EEF2K (human) (O00418 whole entry, looked up): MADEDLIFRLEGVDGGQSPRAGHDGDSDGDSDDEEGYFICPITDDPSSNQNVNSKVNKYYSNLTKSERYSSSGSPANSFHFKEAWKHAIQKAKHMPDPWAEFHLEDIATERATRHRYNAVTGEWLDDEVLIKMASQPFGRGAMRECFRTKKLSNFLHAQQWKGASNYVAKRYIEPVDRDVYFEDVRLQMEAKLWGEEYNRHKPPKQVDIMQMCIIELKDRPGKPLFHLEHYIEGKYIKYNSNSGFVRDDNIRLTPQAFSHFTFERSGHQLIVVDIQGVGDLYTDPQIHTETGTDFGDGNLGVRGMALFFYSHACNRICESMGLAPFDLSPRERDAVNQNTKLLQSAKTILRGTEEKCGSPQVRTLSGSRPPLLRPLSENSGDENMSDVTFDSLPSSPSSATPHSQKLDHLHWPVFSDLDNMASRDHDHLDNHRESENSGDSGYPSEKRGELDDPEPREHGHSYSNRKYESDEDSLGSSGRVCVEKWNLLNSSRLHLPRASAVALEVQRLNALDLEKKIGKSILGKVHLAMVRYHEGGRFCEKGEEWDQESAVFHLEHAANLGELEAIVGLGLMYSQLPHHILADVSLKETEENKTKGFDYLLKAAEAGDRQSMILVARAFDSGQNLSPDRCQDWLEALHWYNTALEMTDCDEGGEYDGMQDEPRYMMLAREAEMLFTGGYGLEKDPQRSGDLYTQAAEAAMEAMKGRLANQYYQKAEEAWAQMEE
Chain of SGK1 (human), O00141 [S422D] (O00141 whole entry S422D, looked up): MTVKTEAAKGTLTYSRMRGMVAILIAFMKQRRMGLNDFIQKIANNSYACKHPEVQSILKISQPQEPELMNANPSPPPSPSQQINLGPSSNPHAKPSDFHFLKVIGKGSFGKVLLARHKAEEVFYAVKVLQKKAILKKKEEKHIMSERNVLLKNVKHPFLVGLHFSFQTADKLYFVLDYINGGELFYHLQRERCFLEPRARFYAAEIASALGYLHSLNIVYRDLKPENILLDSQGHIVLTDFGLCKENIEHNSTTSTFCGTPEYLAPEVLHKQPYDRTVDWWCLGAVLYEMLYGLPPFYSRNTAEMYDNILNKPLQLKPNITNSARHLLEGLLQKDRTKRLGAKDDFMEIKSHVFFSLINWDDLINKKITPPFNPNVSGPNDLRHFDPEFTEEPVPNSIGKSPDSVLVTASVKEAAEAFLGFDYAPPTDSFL
Chain of DYRK2 (human) (Q92630 whole entry, looked up): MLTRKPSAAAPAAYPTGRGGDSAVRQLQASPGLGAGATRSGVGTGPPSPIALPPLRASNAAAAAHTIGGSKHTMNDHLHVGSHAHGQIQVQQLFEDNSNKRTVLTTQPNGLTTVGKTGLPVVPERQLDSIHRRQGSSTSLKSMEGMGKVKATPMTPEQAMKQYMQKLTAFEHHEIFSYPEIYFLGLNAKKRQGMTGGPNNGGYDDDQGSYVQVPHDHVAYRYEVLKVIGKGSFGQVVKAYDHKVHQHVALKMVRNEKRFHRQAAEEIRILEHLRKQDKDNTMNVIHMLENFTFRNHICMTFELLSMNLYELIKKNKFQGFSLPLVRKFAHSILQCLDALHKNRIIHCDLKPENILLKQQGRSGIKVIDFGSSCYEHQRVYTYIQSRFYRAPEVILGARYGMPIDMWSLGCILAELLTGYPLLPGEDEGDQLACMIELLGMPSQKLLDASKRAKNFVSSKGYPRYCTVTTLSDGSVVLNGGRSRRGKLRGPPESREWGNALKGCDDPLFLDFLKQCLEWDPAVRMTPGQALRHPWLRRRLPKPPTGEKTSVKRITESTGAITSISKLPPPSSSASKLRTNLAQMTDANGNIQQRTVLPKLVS
Chain of NEK2 (human) (P51955 whole entry, looked up): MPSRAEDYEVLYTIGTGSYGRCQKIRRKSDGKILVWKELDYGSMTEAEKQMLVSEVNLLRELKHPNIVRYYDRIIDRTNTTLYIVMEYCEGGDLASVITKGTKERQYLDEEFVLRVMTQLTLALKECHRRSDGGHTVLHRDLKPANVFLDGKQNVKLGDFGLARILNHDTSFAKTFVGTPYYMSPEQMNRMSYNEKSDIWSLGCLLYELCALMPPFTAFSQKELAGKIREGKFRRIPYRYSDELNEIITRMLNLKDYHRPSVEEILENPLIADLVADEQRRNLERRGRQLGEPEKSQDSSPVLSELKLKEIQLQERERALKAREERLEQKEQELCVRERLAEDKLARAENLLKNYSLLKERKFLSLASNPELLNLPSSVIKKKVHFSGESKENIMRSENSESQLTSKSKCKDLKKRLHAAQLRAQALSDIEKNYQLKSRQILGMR
Chain of PRKACA or PRKACB or PRKACG (human) (P22612 whole entry, looked up, other chains not shown): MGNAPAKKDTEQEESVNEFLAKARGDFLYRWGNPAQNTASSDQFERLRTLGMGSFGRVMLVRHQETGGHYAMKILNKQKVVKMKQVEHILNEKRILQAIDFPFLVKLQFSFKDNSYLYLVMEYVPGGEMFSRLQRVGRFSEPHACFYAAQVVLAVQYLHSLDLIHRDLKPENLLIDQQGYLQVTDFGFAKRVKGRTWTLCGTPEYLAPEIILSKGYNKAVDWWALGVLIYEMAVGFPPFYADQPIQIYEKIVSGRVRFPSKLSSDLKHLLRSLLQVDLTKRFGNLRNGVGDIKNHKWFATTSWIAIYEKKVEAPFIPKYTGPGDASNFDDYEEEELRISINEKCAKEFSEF
Chain of MAPK8 (human) (P45983 whole entry, looked up): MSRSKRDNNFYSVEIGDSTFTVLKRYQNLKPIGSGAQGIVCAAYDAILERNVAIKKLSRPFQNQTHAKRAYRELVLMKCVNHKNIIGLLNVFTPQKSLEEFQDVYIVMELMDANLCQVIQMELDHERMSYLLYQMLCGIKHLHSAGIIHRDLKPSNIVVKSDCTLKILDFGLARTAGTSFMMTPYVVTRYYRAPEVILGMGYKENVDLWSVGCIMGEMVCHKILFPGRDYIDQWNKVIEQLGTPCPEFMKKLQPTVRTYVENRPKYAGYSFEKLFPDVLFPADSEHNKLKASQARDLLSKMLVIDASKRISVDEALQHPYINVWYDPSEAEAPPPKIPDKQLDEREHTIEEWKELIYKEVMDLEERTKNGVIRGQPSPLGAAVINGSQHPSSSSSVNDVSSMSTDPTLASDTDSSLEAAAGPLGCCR
Chain of IKBKB (human) (O14920 whole entry, looked up): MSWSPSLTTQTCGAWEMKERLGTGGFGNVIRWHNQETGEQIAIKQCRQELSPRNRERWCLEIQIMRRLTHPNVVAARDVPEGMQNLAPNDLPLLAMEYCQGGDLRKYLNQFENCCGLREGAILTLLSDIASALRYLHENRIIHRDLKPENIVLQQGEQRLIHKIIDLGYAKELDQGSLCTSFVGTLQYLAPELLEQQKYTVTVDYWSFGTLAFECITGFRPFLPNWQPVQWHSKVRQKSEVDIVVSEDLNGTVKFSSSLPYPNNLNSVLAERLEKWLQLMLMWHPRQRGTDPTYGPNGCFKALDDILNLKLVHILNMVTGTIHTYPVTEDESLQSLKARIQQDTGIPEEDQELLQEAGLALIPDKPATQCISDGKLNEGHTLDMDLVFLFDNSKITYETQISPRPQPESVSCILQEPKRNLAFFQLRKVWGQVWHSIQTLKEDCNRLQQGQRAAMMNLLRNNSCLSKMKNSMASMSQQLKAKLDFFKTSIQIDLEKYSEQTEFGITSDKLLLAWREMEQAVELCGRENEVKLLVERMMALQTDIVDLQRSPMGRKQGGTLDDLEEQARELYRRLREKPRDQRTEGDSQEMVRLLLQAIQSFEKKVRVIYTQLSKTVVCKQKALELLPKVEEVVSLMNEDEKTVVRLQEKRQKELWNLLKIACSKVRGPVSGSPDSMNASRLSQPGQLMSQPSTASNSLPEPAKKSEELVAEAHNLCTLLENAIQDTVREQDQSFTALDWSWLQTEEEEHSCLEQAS

COC[C@H]1OC(=O)c2coc3c2[C@@]1(C)C1=C(C3=O)[C@@H]2CCC(=O)[C@@]2(C)C[C@H]1OC(C)=O
residual activity (PRKCA (human)): 68%
residual activity (GSK3B (human)): 65%
residual activity (IKBKB (human)): 96%
residual activity (MAPKAPK2 (human)): 125%
residual activity (DYRK2 (human)): 98%
residual activity (HIPK3 (human)): 75%
residual activity [1]: 86%
residual activity (NEK2 (human)): 81%
residual activity (CAMKK2 (human)): 71%
residual activity (BRSK2 (human)): 80%
residual activity (SRC (chicken)): 83%
residual activity (MAPK14 (human)): 117%
residual activity (CaMK1 (human)): 97%
residual activity (HIPK2 (human)): 94%
residual activity (PDPK1 (human); ATP 20 µM): 91%
residual activity (PDPK1 (human); ATP 50 µM): 92%
residual activity (MAPK3 (human)): 106%
residual activity (CSK (human)): 73%
residual activity (MAPK15 (human)): 98%
residual activity (PAK6 (human)): 86%
residual activity (MAPK8 (human)): 84%
residual activity [2]: 96%
residual activity (EEF2K (human)): 97%
residual activity (AURKB (human)): 83%
residual activity (PLK1 (human)): 64%
residual activity [3]: 97%
residual activity (MAP2K1 (human)): 63%
residual activity (DYRK3 (human)): 84%
residual activity (RPS6KA1 KD1 KD2 (human)): 86%
residual activity (PRKAA1 or PRKAA2 (rat)): 88%
residual activity (MAPK12 (human)): 94%
residual activity (STK3 (human)): 96%
residual activity (AKT2 (human)): 90%
residual activity (PIM1 (human)): 87%
residual activity (PKN2 (human)): 71%
residual activity (MAPK10 (human)): 97%
residual activity (CHEK2 (human)): 90%
residual activity [4]: 86%
residual activity (MAPK1 (human)): 90%
residual activity (PIM3 (human)): 86%
